The text below walks through data of patent US6124281A, “Azolobenzazepine derivatives as neurologically active agents” (Zeneca Limited, priority 1998, dated 2000).

For orientation: IC50 means the midpoint of a concentration-inhibition curve. Higher therefore signals a need for much substance.

Test [1] relates to NMDA-induced excitatory response of red nucleus cells. As to the kind of experiment: Rat Red Nucleus Test. To be noted: iv. The test is classed as in vivo. The method, then:
The purpose of this test is to determine the effects of intravenously administered is glycine antagonists on the NMDA- induced excitatory response of red nucleus cells.
The procedure for the red nucleus test is as follows. Rats are anesthetized with chloral hydrate (400 mg/kg ip) and the femoral vein is catheterized for iv drug administration. Five-barrel micropipettes are stereotaxically positioned in the red nucleus. Typically, three to four of the five barrels are filled as follows: the recording barrel with 2M potassium citrate. the current balancing barrel with 4M NaCl, the drug barrel with 25 mM NMDA, and another drug barrel with 2.5 mM quisqualic acid (QA is only used in selectivity studies). NMDA is iontophoretically applied with an ejection current that is adjusted depending on the sensitivity of each individual red nucleus cell. The NMDA is cycled on and off (usually 30-60 sec. on and 60-120 sec. off) and the firing rate of the cell during each period is recorded. Once the baseline firing rate of the cell has been established, the test drug is administered iv. The inhibitory effect of the drug on the NMDA-induced excitatory response of the red nucleus cell can then be both qualitatively and quantitatively evaluated from the recordings and the raw data accumulated and the results are expressed as an ID50 value (The dose in mg/kg of the test drug which causes 50% inhibition).

In test [2] the target is T1, N-methyl-D-aspartate receptor (Rattus norvegicus, UniProt P35439).
T1 construct: Freshly dissected cortices and hippocampi are homogenized in 0.32M sucrose; from tissue; host or cells: cortices and hippocampi of adult male Sprague-Dawley rats, synaptic membranes
Put plainly: [3H]-glycine Binding Assay. Also on record: species or system Sprague-Dawley rat. The settings on record: 20 nM [3H]-glycine, rat cortex and hippocampus synaptic membranes, pH 7.1, 30 minutes at 4° C. The method, then: [^3 H]-glycine Binding Assay
In the [^3 H]-glycine binding assay, neuronal synaptic membranes are prepared from adult (about 250 g) male Sprague-Dawley rats. Freshly dissected cortices and hippocampi are homogenized in 0.32M sucrose (110 mg/mL). Synaptosomes are isolated by centrifugation (1000×g, 10 minutes), the supernatant is pelleted (20,000×g, 20 minutes) resuspended in double-distilled water. The suspension was centrifuged for 20 minutes at 8,000×g. The resulting supernatant and buffy coat are washed twice (48,000×g, 10 minutes, resuspension in double-deionizedwater). The final pellet is quickly frozen (dry icelethanol bath) under double-deionized water and stored at -70° C.
On the day of the experiment, thawed synaptic membranes are homogenized with a Brinkmann Polytron (TM, Brinkmann Instruments, Westbury, N.Y.) tissue homogenizer in 50 mM tris(hydroxymethyl)aminomethane citrate, pH 7.1. The membranes are incubated with 0.04% Sufact-AMPS X100 (TM, Pierce, Rockford, Ill.) in buffer for 20 minutes at 37° C. and washed six times by centrifugation (48,000×g, 10 minutes) and resuspended in buffer. The final pellet is homogenized at 200 mg wet weight/mL of the buffer for the binding assay.
For [^3 H]-glycine binding at the N-methyl-D-aspartate receptor, 20 nM [^3 H]-glycine (40-60 Ci/mmol, New England Nuclear, Boston, Mass.) is incubated with the membranes suspended in 50 mM tris(hydroxymethyl)aminomethane citrate, pH 7.1 for 30 minutes at 4° C. Glycine, 1mM, is used to define the nonspecific binding. Bound [^3 H]-glycine is isolated from free using a Brandel (Biomedical Research and Development Laboratories, Gaithersburg, Md.) cell harvester for vacuum filtration over glass fiber filters (Whatman GFB from Brandel, Gaithersburg, Md.) presoaked in 0.025% polyethylenimine. The samples retained on the glass fiber filters are rinsed 3 times with a total of 2.5 mL ice cold buffer. Radioactivity is estimated by liquid scintillation counting. IC50 values are obtained from a least-squares regression of a logit-log transformation of the data.

Test [3] concerns infarcted cortex. Put plainly: Rat Middle Cerebral Artery Test. The test is classed as in vivo, SHR rat. To be noted: intravenously, 10 mg/kg per hour over 4 hours; permanent MCA occlusion. The method, then:
Rat Middle Cerebral Artery Test
Male SHR rats weight 280-320 g are used for these studies. The method used for permanent middle cerebral artery (MCA) occlusion is as described by Brint et al (1988). […] Following occlusions, drugs are administered intravenously via jugular catheter. Twenty-four hours after MCA/common carotid artery occlusion, the animals are sacrificed and their brains quickly removed. Coronal sections of 1 mm thickness are cut using a vibratome and stained with 2,3,5-triphenyl-2H-tetrazolium chloride (TTC) dye. Following staining, necrotic tissue is readily distinguished from the intact brain and the area of infarcted cortex can be traced on an image analyzer. The infarct volume for each section is quantified with an image analyzer, and the total infarct volume is calculated with a program that sums all interval volumes. See S. Brint et al. J. Cerebral Blood Flow 8:474-475 (1988). The statistical analysis of the difference between the volume of ischemic damage in the vehicle control and drug-treated animals is analyzed by Student's t-test. The results are expressed as the percent (%) change in infarct volume and are presented as the mean for animals.

Test [4] concerns neuronal damage in the hippocampus. As to the kind of experiment: Gerbil Ischemic Model. The test is classed as in vivo, Mongolian gerbil. The settings on record: ip twice (pre- and post-occlusion), 20 mg/kg body weight. The method, then: Adult female Mongolian gerbils (50-70 g) are anesthetized with 2 to 3% halothane. The bilateral common carotid arteries at the neck are exposed and occluded with microaneurysm clips. After 10 min (unless specified), the clips are removed and the blood flow through the carotid arteries is restored and the skin is sutured. Test compounds are administered intraperitoneally both pre- and post-occlusion, for example 45 minutes before and 5 minutes after occlusion of the carotid arteries. Sham-operated animals are treated in the same manner except that the arteries are not clamped, gross behavioral observations along with motor activity are recorded for 2 hours on the first (24 hours) day following the occlusion. After 4 days, subjects are sacrificed (decapitation), brains are removed, fixed, sectioned and stained with hematoxylin/eosin and cresyl violet.
The brain sections are rated for neuronal damage in the hippocampus using the following rating scale:
1=slight damage (up to 25%)--restricted to CA1 subiculum border
2=moderate damage (up to 50%)--obvious damage, restricted to less than half of CA1 field […]
Sections (7 micron) are evaluated from each brain. […] The average brain damage rating score for each group is recorded, and the damage scores of the drug treated group are compared to the vehicle-treated group using Wilcoxcon-Rank Sum test. […]

[5] abbreviates: NMDA-induced excitatory response, compounds of the invention, read-out: ID50 (dose of the test drug which causes 50% inhibition).

Where two headings read alike, the source gives them in different places.

On to `C/C(=C\C(N)C(=O)O)CP(=O)(O)O` (stereo not shown) [CGP 37849, reference compound], for which the ED50 in test [1] (read-out: ID50 of reference agents shown to be active in this test) is 1.7 mg/kg.

With `CC(C)OC(=O)c1n[nH]c2c(=O)[nH]c3cc(Cl)ccc3c(=O)c12` [Example 18, 7-Chloro-3-(isopropoxycarbonyl)pyrazolo[3,4-c][1]benzazepine-4,10(1H,9H)-dione], the ED50 in test [1] (setting [5]) was 3.5 mg/kg. In addition, the IC50 in test [2] came out at 64 nM. The “change in infarct volume” value in test [3] is -19%.

Regarding `CCCCOC(=O)c1n[nH]c2c(=O)[nH]c3cc(Cl)ccc3c(=O)c12` [Example 27, 3-butoxycarbonyl-7-chloropyrazolo[3,4c][1]benzazepine-4,10(1H,9H)-dione], in test [1] (setting [5]), the ED50 stood at 5.7 mg/kg. Besides, the half-inhibitory concentration (IC50) in test [2] worked out at 229 nM.

`CCCOC(=O)c1n[nH]c2c(=O)[nH]c3cc(Cl)ccc3c(=O)c12` [Example 28, 3-propoxycarbonyl-7-chloropyrazolo[3,4-c][1]benzazepine-4,10(1H,9H)-dione]: in test [1] (setting [5]), the ED50 turned out to be 4.6 mg/kg. Moreover, the 50% inhibitory concentration (IC50) in test [2] was 27 nM.

For the molecule `O=c1[nH]c2cc(Cl)ccc2c(=O)c2n[nH]nc12` [Example 48(d), 7-Chloro-1,2,3-triazolo[4,5-c][1]benzazepine-4,10(1H,9H)-dione], the neuroprotection in test [4] was 77%.

As for `NC1CCN(O)C1=O` (stereo not shown) [HA-966, reference compound], the ED50 in test [1] (reference agents, read-out: ID50 of reference agents shown to be active in this test) came out at 7.9 mg/kg.
